Reference: patent publication US4387087A, “Cationic lipophilic complexes of ^99m Tc and their use for myocardial and hepatobiliary imaging” (priority 1980, dated 1983)
Several values for one entry are separate records, joined by “and”; a condition that tells them apart may be missing. Equal entries are not always repeated.

Key:
Assay type in all cases: in vivo
[1] = Myocardial imaging in a normal mongrel dog (Examples 4 and 5)
Procedure: For example, time dependent scintiscans of the chest region of a patient can be used. A computer interface, 16 crystal, Ohio Nuclear Spectrometer, is used for these scans and about 5 mCi of a given radiopharmaceutical is injected; blood samples are concurrently collected via an indwelling intravenous catheter in order to determine blood clearance rates. Time dependent tissue distribution studies are then conducted.

[2] = Tissue distribution studies using normal female Sprague-Dawley rats (Table 1)
[3] = Hepatobiliary imaging in a mongrel dog (Example 6, FIGS. 1 and 2)
Procedure: FIG. 2 is a schematic describing the photograph of FIG. 1. Both the photograph and accompanying schematic were taken after the complex had cleared the blood (5 minutes after injection), entered the liver and started clearing the liver and entering the gallbladder (10 minutes after injection).
The title complex was injected in the same vehicle as in Example 4 into a mongrel dog and images were obtained by positioning a camera directly over the chest of the dog.

[4] = Time dependent myocardial and gallbladder distributions, computer analysis of scintigraphic data (Example 7, FIG. 3); conditions: dog
Procedure: FIG. 3 compares the gallbladder uptake and heart clearing of 99m-Tc (diars)2 Cl2^+ with that of 99m-Tc (diars)2 Br2^+.
(§1) The two title complexes were injected into a dog as described for the complex of Example 4. […] These differences are graphically illustrated in FIG. 3, wherein are plotted time dependent myocardial and gallbladder distributions obtained by computer analysis of scintigraphic data; data for a given complex are normalized, but comparative data between complexes are not.

[5] = Blood clearance curves (Example 7, FIG. 4); conditions: dog
Text: It is clear that these two chemically similar agents are somewhat differentiated in the biological system.
Imaging of the myocardium or the hepatobiliary system can then be carried out (after waiting for appropriate periods of time to permit blood clearance of the radiopharmaceutical), by standard scanning techniques (Andres, J. T. et al., "Nuclear Medicine", Wiley & Sons, N.Y., 1977; "Basic Science Principles of Nuclear Medicine", Boyd, C. M. and Dalrymple, G. V., eds., Morby, St. Louis, 1974). For example, time dependent scintiscans of the chest region of a patient can be used. A computer interface, 16 crystal, Ohio Nuclear Spectrometer, is used for these scans and about 5 mCi of a given radiopharmaceutical is injected; blood samples are concurrently collected via an indwelling intravenous catheter in order to determine blood clearance rates. Time dependent tissue distribution studies are then conducted.
as §1

Molecule: C[P+]1(C)CC[P+](C)(C)[99Tc-3]12([Br])([Br])[P+](C)(C)CC[P+]2(C)C [[99m-Tc(DMPE)2 Br2]^+, [99m-Tc(DMPE)2 Br2]Br]
- Myocardial uptake by the heart ([1]; same conditions as Example 4): Myocardial uptake by the heart of a normal mongrel dog was observed

Molecule: trans-[Tc-99m(diars)2 Br2 ]Br [trans-[Tc(diars)2 Br2]Br]
- Blood ([2]; 10 min post dose): 0.38(3) % of the dose/g
- Femur Muscle ([2]; 10 min post dose): 0.22(6) % of the dose/g
- Kidney ([2]; 10 min post dose): 3.1(6) % of the dose/g
- Liver ([2]; 10 min post dose): 4.5(6) % of the dose/g
- Pancreas ([2]; 10 min post dose): 1.0(3) % of the dose/g
- Heart ([2]; 10 min post dose, 10 min): 2.3(5) % of the dose/g and 2.3 % of the dose/g
- Blood ([2]; 30 min post dose): 0.27(3) % of the dose/g
- Femur Muscle ([2]; 30 min post dose): 0.29(3) % of the dose/g
- Heart ([2]; 30 min post dose): 1.8(1) % of the dose/g
- Kidney ([2]; 30 min post dose): 2.3(1) % of the dose/g
- Liver ([2]; 30 min post dose): 2.9(6) % of the dose/g
- Pancreas ([2]; 30 min post dose): 1.2(2) % of the dose/g
- Blood ([2]; 60 min post dose): 0.21(1) % of the dose/g
- Femur Muscle ([2]; 60 min post dose): 0.26(5) % of the dose/g
- Heart ([2]; 60 min post dose): 1.3(1) % of the dose/g
- Kidney ([2]; 60 min post dose): 2.1(1) % of the dose/g
- Liver ([2]; 60 min post dose): 2.7(3) % of the dose/g
- Pancreas ([2]; 60 min post dose): 0.9(1) % of the dose/g
- Blood ([2]; 120 min post dose): 0.18(3) % of the dose/g
- Femur Muscle ([2]; 120 min post dose): 0.28(2) % of the dose/g
- Heart ([2]; 120 min post dose): 1.0(1) % of the dose/g
- Kidney ([2]; 120 min post dose): 1.9(1) % of the dose/g
- Liver ([2]; 120 min post dose): 2.1(2) % of the dose/g
- Pancreas ([2]; 120 min post dose): 0.8(1) % of the dose/g
- removal of the bulk of the activity [1]: The bulk of the activity is taken out by the hepatobiliary system
- maximal myocardial uptake, time post injection ([1]; 50% ethanol/50% saline vehicle): about 20 minutes
- visualization of the myocardium ([1]; high sensitivity colimator): clearly visualizing the myocardium
- complex in the blood pool ([3]; 0 minutes, immediately after injection): most of the complex is in the blood pool which is predominantly in the heart chambers
- clearance from the blood ([3]; 1 minute after injection): begins to clear from the blood
- gallbladder uptake ([3]; 1 minute after injection): The gallbladder does not yet contain any activity
- liver uptake ([3]; 1 minute after injection): starts to enter the liver
- clearance from the blood ([3]; 5 minutes): The complex is all gone from the blood
- gallbladder uptake ([3]; 5 minutes): A small amount has begun to enter the gallbladder
- heart image ([3]; 5 minutes): the heart image has disappeared
- liver uptake ([3]; 5 minutes): most of it is in the liver
- gallbladder uptake ([3]; 10 minutes): The gallbladder has taken up most of the complex and appears brighter than even the liver
- gallbladder uptake ([3]; 20 minutes): The gallbladder has taken up the bulk of the complex
- liver activity ([3]; 20 minutes): the liver contains relatively little activity
- gallbladder uptake ([3]; 30 minutes, FIGS. 1 and 2): the gallbladder has taken up the bulk of the complex
- liver activity ([3]; 30 minutes, FIGS. 1 and 2): the liver contains relatively little activity
- time after injection at which the complex had cleared the blood ([3]; FIGS. 1 and 2): 5 min
- time after injection at which the complex started clearing the liver and entering the gallbladder ([3]; FIGS. 1 and 2): 10 min
- gallbladder handling of the two agents ([4]; FIG. 3): the gallbladder handles these two agents differently
- gallbladder uptake (rate) ([4]; intravenous): relatively slow
- time post intravenous injection at which the myocardium is readily visualized ([4]; intravenous): 20 to 40 min
- Blood clearance curves, comparison of the two complexes [5]: biologically differentiated
